Measured values: US10905121B2, “Method for controlling PPO resistant weeds” (BASF SE, priority 2016, dated 2021)

Key:
[1] = test system: Amaranthus tamariscinus (AMATA, common waterhemp), PPO resistant biotype 2 (w.3); assay: greenhouse herbicidal activity test, weed w.3; type: in vivo; settings: scale 0 to 100
Source text: (§1) The culture containers used were plastic flowerpots containing loamy sand with approximately 3.0% of humus as the substrate. The seeds of the test plants were sown separately for each species and/or resistant biotype. For the pre-emergence treatment, the active ingredients, which had been suspended or emulsified in water, were applied directly after sowing by means of finely distributing nozzles. The containers were irrigated gently to promote germination and growth and subsequently covered with transparent plastic hoods until the plants had rooted. This cover caused uniform germination of the test plants, unless this had been impaired by the active ingredients. For the post-emergence treatment, the test plants were first grown to a height of 3 to 15 cm, depending on the plant habit, and only then treated with the active ingredients which had been suspended or emulsified in water. For this purpose, the test plants were either sown directly and grown in the same containers, or they were first grown separately as seedlings and transplanted into the test containers a few days prior to treatment. Depending on the species, the plants were kept at 10-25° C. or 20-35° C., respectively. The test period extended over 2 to 4 weeks. During this time, the plants were tended, and their response to the individual treatments was evaluated. The evaluation was carried out by using a scale from 0 to 100. […]

[2] = test system: Amaranthus tamariscinus (AMATA, common waterhemp), PPO resistant biotype 1 (w.2); assay: greenhouse herbicidal activity test, weed w.2; type: in vivo; settings: scale 0 to 100
Source text: as §1

[3] = test system: sensitive (w.1) and resistant weeds (w.2 to w.5); assay: greenhouse herbicidal activity test, summary over all biotypes; type: in vivo, Amaranthus tamariscinus; settings: w.1 to w.5, including those shown to contain the ΔG210 mutation
Source text: as §1

[4] = test system: Amaranthus tamariscinus (AMATA, common waterhemp), PPO resistant biotype 3 confirmed to contain the ΔG210 mutation (w.4); assay: greenhouse herbicidal activity test, weed w.4; type: in vivo; settings: PPO resistant biotype 3 (ΔG210), scale 0 to 100
Source text: as §1

[5] = test system: Amaranthus tamariscinus (AMATA, common waterhemp), PPO resistant biotype 4 confirmed to contain the ΔG210 mutation (w.5); assay: greenhouse herbicidal activity test, weed w.5; type: in vivo; settings: PPO resistant biotype 4 (ΔG210), scale 0 to 100
Source text: as §1

[6] = test system: Amaranthus tamariscinus (AMATA, common waterhemp), Sensitive biotype (w.1); assay: greenhouse herbicidal activity test, weed w.1; type: in vivo; settings: scale 0 (no damage) to 100 (complete destruction)
Source text: as §1

C=CCOC(=O)C(C)(C)OC(=O)c1cc(-n2c(=O)cc(C(F)(F)F)n(C)c2=O)ccc1Cl [(I).1, butafenacil]
Weed control (%) w.3 ([1]; use rate 4 g/ha): 100%
Weed control (%) w.3 ([1]; use rate 8 g/ha): 100%
Weed control (%) w.2 ([2]; use rate 4 g/ha): 100%
Weed control (%) w.2 ([2]; use rate 8 g/ha): 100%
activity on sensitive and resistant weeds (in words) [3]: very good activity
Weed control (%) w.4 ([4]; use rate 4 g/ha): 80%
Weed control (%) w.4 ([4]; use rate 8 g/ha): 85%
Weed control (%) w.5 ([5]; use rate 4 g/ha): 80%
Weed control (%) w.5 ([5]; use rate 8 g/ha): 83%
Weed control (%) w.1 ([6]; use rate 4 g/ha): 100%
Weed control (%) w.1 ([6]; use rate 8 g/ha): 100%
